Assay results published in patent US10759813B2, “Neprilysin inhibitors” (THERAVANCE BIOPHARMA R&D IP, LLC, priority 2010, dated 2020).

Target: human neprilysin (EC 3.4.24.11; NEP) (Homo sapiens (Human), UniProt P08473)
Assay: In vitro enzyme inhibition assay at human NEP (fluorogenic peptide substrate)
Type: biochemical
Details: pKi values at human NEP, recombinant human NEP
Procedure, shortened: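 Recombinant human NEP preincubated 30 min at 37 °C with compound (10 μM down to pM), then 10 μM Mca-D-Arg-Arg-Leu-Dap-(Dnp)-OH in 50 mM HEPES pH 7.5, 100 mM NaCl, 0.01% Tween-20, 10 μM ZnSO4. Stopped after 20 min with acetic acid; fluorescence Ex320/Em405; Ki by nonlinear fit, reported as pKi.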

Chain of human neprilysin (EC 3.4.24.11; NEP) (P08473 52-750): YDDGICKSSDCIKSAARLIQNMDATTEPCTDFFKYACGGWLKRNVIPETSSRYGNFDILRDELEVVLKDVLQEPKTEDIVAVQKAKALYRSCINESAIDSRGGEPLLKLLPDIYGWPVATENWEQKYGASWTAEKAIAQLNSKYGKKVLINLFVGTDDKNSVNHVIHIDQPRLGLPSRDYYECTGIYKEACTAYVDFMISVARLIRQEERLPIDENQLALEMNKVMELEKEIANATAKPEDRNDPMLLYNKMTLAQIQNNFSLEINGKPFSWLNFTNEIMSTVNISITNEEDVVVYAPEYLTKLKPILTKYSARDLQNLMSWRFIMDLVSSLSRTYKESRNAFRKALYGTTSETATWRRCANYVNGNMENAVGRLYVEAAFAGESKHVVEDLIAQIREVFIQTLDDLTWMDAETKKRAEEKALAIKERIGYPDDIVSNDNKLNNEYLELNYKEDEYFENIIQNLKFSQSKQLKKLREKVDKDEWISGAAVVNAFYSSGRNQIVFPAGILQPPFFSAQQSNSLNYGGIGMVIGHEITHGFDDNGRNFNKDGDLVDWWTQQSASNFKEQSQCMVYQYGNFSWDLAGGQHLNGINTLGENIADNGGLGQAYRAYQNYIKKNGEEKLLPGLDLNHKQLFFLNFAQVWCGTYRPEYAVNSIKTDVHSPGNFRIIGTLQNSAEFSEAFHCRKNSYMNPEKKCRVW

| Structure (SMILES) | pKi | Ki [nM] |
| --- | --- | --- |
| O=C(N[C@@H](Cc1ccc(-c2cc(O)cc(Cl)c2)cc1)C[C@H](O)C(=O)O)c1ccc2nnn(O)c2c1 [Example 23-8, (2S,4S)-5-(3′-Chloro-5′-hydroxy-biphenyl-4-yl)-2-hydroxy-4-[(3-hydroxy-3H-benzotriazole-5-carbonyl)-amino]-pentanoic acid] | ≥9.0 | – |
| CC(C)(c1ccc(-c2ccccc2)cc1)[C@H](C[C@@H](O)C(=O)O)NC(=O)c1cc(C(=O)O)n[nH]1 [Example 24, 5-[(S)-2-Biphenyl-4-yl-1-((R)-2-carboxy-2-hydroxy-ethyl)-2-methyl-propylcarbamoyl]-1H-pyrazole-3-carboxylic Acid] | ≥9.0 | – |
| CC(C)(c1ccc(-c2ccccc2)cc1)[C@H](C[C@@H](O)C(=O)O)NC(=O)c1c[nH]nn1 [Example 25-1, (2R,4S)-5-Biphenyl-4-yl-2-hydroxy-5-methyl-4-[(1H-[1,2,3]triazole-4-carbonyl)-amino]-hexanoic acid] | – | 12.6 to 100 |
| CC(C)(c1ccc(-c2ccccc2)cc1)[C@H](C[C@@H](O)C(=O)O)NC(=O)c1cn(O)nn1 [Example 25-2, (2R,4S)-5-Biphenyl-4-yl-2-hydroxy-4-[(1-hydroxy-1H-[1,2,3]triazole-4-carbonyl)-amino]-5-methyl-hexanoic acid] | – | 1.26 to 10 |
| CC(C)(c1ccc(-c2ccccc2)cc1)[C@H](C[C@@H](O)C(=O)O)NC(=O)c1cc(O)no1 [Example 25-3, (2R,4S)-5-Biphenyl-4-yl-2-hydroxy-4-[(3-hydroxy-isoxazole-5-carbonyl)-amino]-5-methyl-hexanoic acid] | ≥9.0 | – |
